From patent US8440646B1 (priority 2006, dated 2013)
Values after ≈ are worked out from the molar mass of the structure shown.

Assays:
S. pneumoniae 157E [1] = assay: animal or person; type: in vivo, mice; conditions: Streptococcus pneumoniae, 157E, in Mus musculus, 48 h, read-out: % survival; for responders at 5 mg/kg: sc
S. aureus MRSA5 = assay: microbe, parasite or virus in culture; type: cell-based; conditions: Staphylococcus aureus
S. pneumoniae 700905 = assay: microbe, parasite or virus in culture; type: cell-based; conditions: Streptococcus pneumoniae
E. faecium 494 = assay: microbe, parasite or virus in culture; type: cell-based; conditions: Enterococcus faecium
E. faecalis 29212 = assay: microbe, parasite or virus in culture; type: cell-based; conditions: Enterococcus faecalis
[2] = system: Peptidoglycan synthesis of S. aureus RN450; assay: microbe, parasite or virus in culture; type: cell-based; conditions: Staphylococcus aureus
[3] = system: Protein synthesis of S. aureus RN450; assay: microbe, parasite or virus in culture; type: cell-based
S. aureus RN4250 = assay: microbe, parasite or virus in culture; type: cell-based; conditions: Staphylococcus aureus, RN4250
S. aureus RN450 = assay: microbe, parasite or virus in culture; type: cell-based; conditions: Staphylococcus aureus
S. pneumoniae 157E [4] = assay: microbe, parasite or virus in culture; type: cell-based; conditions: Streptococcus pneumoniae

SMILES	MIC (S. aureus MRSA5) [µg/mL]	MIC (S. pneumoniae 700905) [µg/mL]	MIC (E. faecium 494) [µg/mL]	MIC (E. faecalis 29212) [µg/mL]	MIC (S. aureus RN4250) [µg/mL]	MIC (S. aureus RN450) [µg/mL]	other results
CO/N=C(\C)c1cc(CNCC(C)(C)C)c(O)c2c1C[C@H]1C[C@H]3[C@H](N(C)C)C(O)=C(C(N)=O)C(=O)[C@@]3(O)C(O)=C1C2=O [E]	0.25 (≈ 0.428 µM)	0.06 (≈ 0.103 µM)	1 (≈ 1.71 µM)	0.25 (≈ 0.428 µM)	–	–	responders at 10 mg/kg (S. pneumoniae 157E [1]; po): 0%; responders at 5 mg/kg (S. pneumoniae 157E [1]): 40%
CN(C)[C@@H]1C(O)=C(C(N)=O)C(=O)[C@@]2(O)C(O)=C3C(=O)c4c(O)ccc(B5OC(C)(C)C(C)(C)O5)c4C[C@H]3C[C@@H]12 [F]	0.5 (≈ 0.925 µM)	0.25 (≈ 0.463 µM)	1 (≈ 1.85 µM)	0.5 (≈ 0.925 µM)	–	–	responders at 50 mg/kg (S. pneumoniae 157E [1]; po): 100%; responders at 5 mg/kg (S. pneumoniae 157E [1]): 100%
C=CCN(C)Cc1cc(C(C)C)c2c(c1O)C(=O)C1=C(O)[C@]3(O)C(=O)C(C(N)=O)=C(O)[C@@H](N(C)C)[C@@H]3C[C@@H]1C2 [G]	0.5 (≈ 0.927 µM)	0.06 (≈ 0.111 µM)	1 (≈ 1.85 µM)	0.5 (≈ 0.927 µM)	–	–	–
CN(C)[C@@H]1C(O)=C(C(N)=O)C(=O)[C@@]2(O)C(O)=C3C(=O)c4c(O)c(CNCCC(F)(F)F)cc(-c5ncccn5)c4C[C@H]3C[C@@H]12 [J]	0.5 (≈ 0.81 µM)	0.06 (≈ 0.0972 µM)	1 (≈ 1.62 µM)	0.25 (≈ 0.405 µM)	–	–	–
CN(Cc1ccccc1F)Cc1cc(N(C)C)c2c(c1O)C(=O)C1=C(O)[C@]3(O)C(=O)C(C(N)=O)=C(O)[C@@H](N(C)C)[C@@H]3C[C@@H]1C2 [K]	0.5 (≈ 0.821 µM)	0.25 (≈ 0.411 µM)	1 (≈ 1.64 µM)	1 (≈ 1.64 µM)	–	–	–
CN(CCC(F)(F)F)Cc1cc(N(C)C)c2c(c1O)C(=O)C1=C(O)[C@]3(O)C(=O)C(C(N)=O)=C(O)[C@@H](N(C)C)[C@@H]3C[C@@H]1C2 [L]	0.5 (≈ 0.838 µM)	0.75 (≈ 1.26 µM)	1 (≈ 1.68 µM)	1 (≈ 1.68 µM)	–	–	–
CCN(CCCC(F)(F)F)Cc1cc(N(C)C)c2c(c1O)C(=O)C1=C(O)[C@]3(O)C(=O)C(C(N)=O)=C(O)[C@@H](N(C)C)[C@@H]3C[C@@H]1C2 [N]	1 (≈ 1.6 µM)	0.13 (≈ 0.208 µM)	0.5 (≈ 0.8 µM)	1 (≈ 1.6 µM)	–	–	–
CN(C)[C@@H]1C(O)=C(C(N)=O)C(=O)[C@@]2(O)C(O)=C3C(=O)c4c(O)ccc(C(=O)CN5CCCCC5)c4C[C@H]3C[C@@H]12 [O]	–	–	–	–	0.06 (≈ 0.111 µM)	0.06 (≈ 0.111 µM)	IC50 ([2]; read-out: Peptidoglycan synthesis IC50): > 32 µg/mL; IC90 ([2]; read-out: Peptidoglycan synthesis IC90): > 32 µg/mL; macromolecular synthesis profile in words [3]: profile similar to class I compounds; IC50 ([3]; Staphylococcus aureus, read-out: Protein synthesis IC50): 0.33 µg/mL (≈ 0.612 µM); IC90 ([3]; Staphylococcus aureus, read-out: Protein synthesis IC90): 0.92 µg/mL (≈ 1.71 µM)
CN(C)[C@@H]1C(O)=C(C(N)=O)C(=O)[C@@]2(O)C(O)=C3C(=O)c4c(O)ccc(-c5cncc(CN6CCCCC6)c5)c4C[C@H]3C[C@@H]12 [P]	–	–	–	–	0.06 (≈ 0.102 µM)	0.06 (≈ 0.102 µM)	–
CC(C)N(C)Cc1ccc(-c2ccc(O)c3c2C[C@H]2C[C@H]4[C@H](N(C)C)C(O)=C(C(N)=O)C(=O)[C@@]4(O)C(O)=C2C3=O)o1 [Q]	–	–	–	–	0.06 (≈ 0.106 µM)	0.06 (≈ 0.106 µM)	–
C=CCN(C)Cc1cncc(-c2ccc(O)c3c2C[C@H]2C[C@H]4[C@@H](N(C)C)C(O)=C(C(N)=O)C(=O)[C@@]4(O)C(O)=C2C3=O)c1 [T]	–	–	–	–	0.06 (≈ 0.104 µM)	0.06 (≈ 0.104 µM)	–
CN(C)[C@@H]1C(O)=C(C(N)=O)C(=O)[C@@]2(O)C(O)=C3C(=O)c4c(O)ccc(CN5CCC(F)CC5)c4C[C@H]3C[C@@H]12 [U]	–	–	–	–	0.06 (≈ 0.113 µM)	0.06 (≈ 0.113 µM)	–
CC(C)NCc1ccc(-c2ccc(O)c3c2C[C@H]2C[C@H]4[C@H](N(C)C)C(O)=C(C(N)=O)C(=O)[C@@]4(O)C(O)=C2C3=O)cc1 [W]	–	–	–	–	0.06 (≈ 0.107 µM)	0.06 (≈ 0.107 µM)	–
COc1ccc(CN(C)C)c(-c2ccc(O)c3c2C[C@H]2C[C@H]4[C@H](N(C)C)C(O)=C(C(N)=O)C(=O)[C@@]4(O)C(O)=C2C3=O)c1 [X]	–	–	–	–	0.06 (≈ 0.104 µM)	0.06 (≈ 0.104 µM)	–
COCCNCc1ccc(-c2ccc(O)c3c2C[C@H]2C[C@H]4[C@H](N(C)C)C(O)=C(C(N)=O)C(=O)[C@@]4(O)C(O)=C2C3=O)cc1 [Y]	–	–	–	–	0.06 (≈ 0.104 µM)	0.06 (≈ 0.104 µM)	–
CN(C)[C@@H]1C(O)=C(C(N)=O)C(=O)[C@@]2(O)C(O)=C3C(=O)c4c(O)ccc(C#Cc5ccccn5)c4C[C@H]3C[C@@H]12 [Z]	0.5 (≈ 0.97 µM)	–	–	–	–	0.13 (≈ 0.252 µM)	MIC (S. pneumoniae 157E [4]): 0.06 µg/mL (≈ 0.116 µM)
